Experimental data published in patent US20140205583A1, “USE OF PLP WITH PEG-rMETase IN VIVO FOR ENHANCED EFFICACY” (AntiCancer, Inc., priority 2003, published 2014).

How the values were obtained:
plasma methionine = experiment: Plasma methionine depletion following intravenous injection of naked and PEGylated rMETase, with or without PLP pump; format: in vivo, Athymic nude (nu/nu) mice; settings: for Max. Period of MET depletion below 5 μM, PLP+: with PLP supplementation from s.c. mini-osmotic pump; for Period of plasma methionine depletion below 5 μM relative to naked rMETase: fold longer than naked rMETase; for PLP dependence (ratio of plasma methionine PLP− versus PLP+): ratios at various time points, FIG. 8
Method: The methionine level in the plasma was measured by pre-column derivitization, followed by HPLC separation (Jones, B. N., and Gilligan, J. P., J. Chromatogr. (1983) 266:471-482). Briefly, 10 μl of plasma sample or methionine standard was precipitated with 30 μl of acetonitrile, followed by centrifugation at 10,000 rpm for 5 minutes. 10 μl of the supernatant was mixed with 5 μl of a fluoraldehyde derivative reagent, o-phthaldialdehyde, for 1 minute at room temperature, followed by addition of 150 μl of 0.1 M sodium acetate, pH 7.0. 20 μl of the reaction mixture was loaded on a reversed-phase Supelcosil™ LC-18DB column (25 cm×[…], particle size 5 μm (Supelco, Bellefonte, Pa., USA). The amino acid derivatives were separated by using a gradient elution of 40-60% solution B (Methanol) in solution A (tetrahydrofuran/methanol/0.1M sodium acetate. pH 7.2; 5/95/900) at a flow rate of 1.5 ml/minute. A fluorescence spectrophotometer was used for detection: excitation at 350 nm and emission at 450 nm. The plasma methionine was identified by the retention time of a methionine standard solution and quantitated according to a methionine standard curve.
(§1) Athymic nude (nu/nu) mice aged 4 weeks (20-25 g) were used for the study with 4 mice per group. Osmotic mini-pumps filled with 250 μl PLP (0.5 g/ml) were implanted subcutaneously. Twenty-four hours after pump implantation, 80 units of native rMETase or PEG-rMETase in 0.5 ml PBS, pH 7.4, were injected via the tail vein in mice with or without PLP pumps. 400 μl of blood was collected from the retroorbital plexus of each animal using heparinized capillary tubes. Blood was collected prior to injection, and 1, 2, 4, 8, 24, 48, 72, 96 and 120 hours post injection. The plasma was separated and stored in small aliquots at −80° C. The plasma enzyme activity, methionine concentration and PLP level in the plasma, collected at the different time points, were measured as described above.
(§2) 80 U of naked or PEGylated rMETase were injected i.v. in each mouse with or without PLP supplementation. Blood samples were collected at different time points and measured for enzyme activity and methionine concentration as described in the Materials and Methods. Plasma half-life was calculated from the plasma enzyme concentration-time profiles (FIG. 4). Maximum period of methionine depletion below 5 μM is calculated from the plasma methionine levels in FIGS. 5 and 7.
The mice were injected i.v. with 80 U of naked or the indicated PEGylated rMETase. Blood samples were collected at different time points and measured for plasma methionine concentration as described above.
In these experiments, 80 U of naked or PEGylated rMETase was injected intravenously in animals with and without PLP supplementation from implanted mini-osmotic pumps. Blood samples were taken at different time points and measured for plasma methionine concentration. […] The plasma methionine levels depleted by the three PEGylated rMETase conjugates were maintained below 2 μM for 48 hours and below 4 μM for 72 hours in case of PEG/rMETase 120 with PLP supplementation (Table 3). At 120 hours after injection of PEG/rMETase, the plasma methionine level depleted by PEG/rMETase 30, PEG/rMETase 60 and PEG/rMETase 120 still remained at 40%, 57% and 22% of normal baseline, respectively (Table 3).

cancer cell lines = settings: wide variety of cancer cell lines, in vitro; cited from earlier work
[1] = Pharmacokinetics: plasma enzyme activity following intravenous injection of naked and PEGylated rMETase in mice; format: in vivo, Athymic nude (nu/nu) mice; settings: for Plasma half-life in mice: 80 U i.v. per mouse, calculated from plasma enzyme activity-time profiles; for Plasma enzyme activity detectable until: 80 units per mouse i.v.
Method: rMETase activity was determined from α-ketobutyrate produced from L-methionine according to the method of Tanaka, H., et al., Biochemistry (1977) 16:100-106, with slight modification. 0.5 ml of sample diluted in 100 mM potassium phosphate buffer pH 8.0, containing 0.01% DTT, 1 mM EDTA Nae, 10 μM PLP and 0.05% Tween 80, was mixed with 0.5 ml of substrate solution containing 100 mM potassium phosphate buffer, pH 8.0, containing 25 mM L-methionine and 10 μM PLP in a glass test tube. The reaction mixture was vortexed immediately and incubated at 37° C. without shaking for precisely 10 minutes. The reaction was stopped by adding 0.5 ml of 50% TCA. The suspension was centrifuged at 13,000 rpm for 2 minutes. The supernatant (0.5 ml) was collected in a glass tube containing 1 ml 1 M acetate buffer, pH 5.0. Then, 0.4 ml MBTH solution containing 0.1% 3-methyl-2-benzothiazolinonehydrazone dihydrochloride monohydrate (Wako Pure Chemical, Osaka, Japan) was added to the tube, mixed well and incubated at 50° C. for 30 minutes. The absorbance of the reaction mixture was measured at 320 nm. The assay was carried out in triplicate. ΔE was calculated by subtracting the average absorbance of blanks from the average absorbance of the reaction mixture. The enzyme activity was calculated by the following equation: Activity (U/ml)=0.548 (1.07+2.2ΔE) ΔE. One unit of enzyme is defined as the amount of enzyme which produced 1 μM of α-ketobutyrate per minute at an infinite concentration of L-methionine.
as §1
The mice were injected intravenously with 80 U naked or the indicated PEGylated rMETase. Blood samples were collected at different time points and measured for plasma enzyme activity as described above.
as §2

[2] = tested on: plasma anti-rMETase specific antibody; experiment: Plasma anti-rMETase antibody titer by sandwich ELISA after immunization with FCA; format: in vivo, BALB/c male mice; settings: mice immunized i.p. with 200 μg in FCA; figures in parentheses = numbers of mice
Method: BALB/c male mice were grouped randomly at 5 per group. Each mouse received three i.p. injections of 0.2 ml (200 μg) naked or PEG-rMETase emulsified in Freund's complete adjuvant (FCA) at weekly intervals. Two weeks following the last injection, a booster injection of the rMETase or PEG-rMETase was given to each mouse. Blood samples were collected two weeks after the booster injection, and plasma was separated and stored at −80° C.
Plasma anti-rMETase antibody was measured using a sandwich ELISA technique. 100 μl 200 μg/ml rMETase in 0.1 M carbonate coating buffer, pH 9.5, was added to each well of a 96-well microplate and incubated at 4° C. overnight. The plate was washed three times with PBS washing buffer, pH 7.4, containing 0.05% Tween-20, and blocked for 2 hours at room temperature with 200 μl of PBS assay buffer, pH 7.4, containing 10% FBS. After washing three times, 100 μl of 10-fold serial dilutions of the plasma samples in PBS assay buffer were added to appropriate wells and incubated for 2 hours at room temperature, followed by washing. 100 μl optimally diluted goat anti-mouse IgG and IgM subtypes conjugated with horseradish peroxidase (SIGMA, St. Louis, Mo., USA) were added to each well. The plate was incubated for 1 hour at room temperature and washed three times. 100 μl substrate solution containing O-phenylenediamine dihydrochloride (OPD) and hydrogen peroxide (SIGMA, St. Louis, Mo., USA) were added to each well, followed by 30 min incubation at room temperature. 50 μl 2N sulfuric acid were added to each well to stop the color reaction. The absorbance of each well was measured at 492 nm. The antibody titer was determined as the highest plasma dilution at which the extinction at 492 nm generated in the well of the immune plasma exceeded twice the extinction generated in those wells with negative control plasma.
IgG and IgM anti-rMETase antibody titers of the plasma of the mice immunized with naked or indicated PEGylated rMETase in the presence of FCA were determined using ELISA as described in the Materials and Methods. […]

[3] = literature comparison; cited from earlier work
[4] = 80 U i.v., without PLP supplementation
[5] = 80 U i.v., with PLP supplementation

L-methionine α-deamino-γ-mercaptomethane lyase [Naked rMETase]
Plasma methionine level reached within 1 hour (plasma methionine; 80 U i.v., baseline 40 μM, without PLP supplementation): less than 5 μM | Max. Period of MET depletion below 5 μM, PLP+ (plasma methionine; 80 U i.v.): 4 h | Max. Period of MET depletion below 5 μM, PLP− (plasma methionine; [4]): 4 h | IC50 in cancer cell lines compared to non-neoplastic cells (cancer cell lines): several-fold less

PEG/rMETase 30: rMETase conjugated with MEGC-PEG-5000 at molar ratio PEG/rMETase of 30/1
Plasma half-life in mice [1]: 12 h | Max. Period of MET depletion below 5 μM, PLP+ (plasma methionine; 80 U i.v.): 48 h | Plasma methionine level at 120 hours after injection, of normal baseline (plasma methionine; [5]): 40% | Max. Period of MET depletion below 5 μM, PLP− (plasma methionine; [4]): 8 h | Period of plasma methionine depletion below 5 μM relative to naked rMETase (plasma methionine; [4]): 2 fold | Plasma anti-rMETase specific IgM antibody titer [2]: 10^−3 (5)

PEG/rMETase 60: rMETase conjugated with MEGC-PEG-5000 at molar ratio PEG/rMETase of 60/1
Plasma half-life in mice [1]: 18 h | Plasma enzyme activity detectable until [1]: 72 h | Max. Period of MET depletion below 5 μM, PLP+ (plasma methionine; 80 U i.v.): 48 h | Plasma methionine level at 120 hours after injection, of normal baseline (plasma methionine; [5]): 57% | Max. Period of MET depletion below 5 μM, PLP− (plasma methionine; [4]): 24 h | Period of plasma methionine depletion below 5 μM relative to naked rMETase (plasma methionine; [4]): 6 fold | PLP dependence (ratio of plasma methionine PLP− versus PLP+) (plasma methionine): lesser PLP dependence than PEG/rMETase 30 | Plasma anti-rMETase specific IgM antibody titer [2]: 10^−3 (5)

PEG/rMETase 120: rMETase conjugated with MEGC-PEG-5000 at molar ratio PEG/rMETase of 120/1
Plasma half-life in mice [1]: 38 h | Plasma enzyme activity detectable until [1]: 72 h | Plasma methionine level maintained for 72 hours (plasma methionine; [5]): below 4 μM | Max. Period of MET depletion below 5 μM, PLP+ (plasma methionine; 80 U i.v.): 72 h | Plasma methionine level at 120 hours after injection, of normal baseline (plasma methionine; [5]): 22% | Max. Period of MET depletion below 5 μM, PLP− (plasma methionine; [4]): 48 h | Period of plasma methionine depletion below 5 μM relative to naked rMETase (plasma methionine; [4]): 12 fold | PLP dependence (ratio of plasma methionine PLP− versus PLP+) (plasma methionine): lesser PLP dependence than PEG/rMETase 30 | Plasma anti-rMETase specific IgM antibody titer [2]: 10^−3 (5)

PEGylated rMETase with M-SPA-PEG: Literature rMETase PEGylated with M-SPA-PEG, comparison for half-life
Plasma half-life [3]: 0.667 h
